In patent US20260315608A1, “Carrier Peptide Fragment and Use Thereof” (TOAGOSEI CO., LTD., priority 2022, published 2026):
Primed or numbered codes have the meaning given here. FAM″ = C-terminal FAM dye

Test system: NSC-34 cells
Test: Evaluation on cell membrane permeability by flow cytometry (median fluorescence intensity)
Type: cell-based, mouse
Settings: for MFI (median fluorescence intensity): 25 μM in well, 0.42% DMSO, 20 hours at 37° C., 10% FBS-containing DMEM, detector FL2; for cell membrane permeability: 25 μM, 20 hours, FAM as foreign substance, in words
Description: As the eukaryotic cells, NSC-34 cells (mouse motor neuron-like hybrid cell line) were used and the cell membrane permeability of the samples 1 to 7 was analyzed. In Examples 1 to 7, the prepared sample solutions 1 to 7 were used, respectively, and in Example 8, a FAM solution was used.
The NSC-34 cells were cultured in 10% fetal bovine serum (FBS)-containing Dulbecco's modified Eagle's medium (DMEM (Cat No. 044-29765, manufactured by FUJIFILM Wako Pure Chemical Corporation)), which is a normal culture medium.
The NSC-34 cells that adhered to a culture plate were cleaned with PBS and then, a 0.25%-trypsin/EDTA solution was added thereto, and incubation was performed for three minutes at 37° C. After the incubation, the aforementioned 10% FBS-containing DMEM was added to deactivate trypsin and then, five-minute centrifugal separation was performed at 150×g to precipitate the cells. After the supernatant generated by the centrifugal separation was removed, the 10% FBS-containing DMEM was added to the precipitate (cell pellet) to prepare a cell suspension of about 2×10^5 cells/mL. The cell suspension was added by 1 mL to a well of a commercially available six-hole (well) plate (manufactured by AGC TECHNO GLASS Co., Ltd.) so as to seed the cell (about 2×10^5 cells/well). In addition, the 6 mM sample solution 1 was diluted with the 10% FBS-containing DMEM to prepare the sample solution 1 in which the concentration of the sample 1 was 50 μM. Then, 1 mL of the 50 μM sample solution 1 was added to the well (that is, so that the concentration of the sample 1 became 25 µM and the DMSO concentration became 0.42% in the culture solution in the well). After that, the cell was incubated for 20 hours at 37° C. under a 5% CO2 condition.
After the 20-hour incubation, the culture supernatant was removed from the well and the cells in the well were cleaned twice with 1 mL of PBS. Next, 200 μL of the 0.25% trypsin/EDTA solution was added to the well and the incubation was performed for three minutes at 37° C. After the incubation, 400 μL of the 10% FBS-containing DMEM was added to the well to deactivate the trypsin. Subsequently, the cell suspension in the well was transferred to a tube and the cells were collected. After that, 600 μL of PBS was added further to the well to clean the well. Then, PBS in the well was transferred to the tube, so that the cells remaining in the well were collected in the tube. This tube was subjected to five-minute centrifugal separation at 4° C. under a condition of 210×g. After the centrifugal separation, the supernatant was removed and the precipitate (cell pellet) was suspended (cleaned) with 1 mL of PBS, which was followed by the centrifugal separation under the same condition as that described above. After this operation was repeated twice, the supernatant was removed and thus, the cells (cell pellet) cultured in a culture medium containing the sample 1 were obtained.
Regarding the obtained cells (cell pellet), the cell membrane permeability of the sample 1 was analyzed using a flow cytometer. As the flow cytometer, On-Chip Flowcytometer (manufactured by On-Chip Biotechnologies Co., LTD.) was used.
For such an analysis, the obtained cell pellet was suspended with 100 μL of on-chip T buffer to prepare a cell suspension for analysis.
Using the aforementioned flow cytometer, gating based on forward scatter (FSC) and side scatter (SSC) was performed to set a gate about a cell group to be analyzed, and the fluorescence intensity was measured about the cell group in this gate. Note that the analysis was performed so that the cell group contained at least 10000 cells or more. The fluorescence intensity was measured using a fluorescence detector FL2 of the flow cytometer (optimum detection wavelength around 543 nm) capable of detecting the fluorescence wavelength of FAM. […]

| Substance | MFI (median fluorescence intensity) | cell membrane permeability |
| --- | --- | --- |
| Ac-KKRTLRKDEDERKKR-FAM (Ac-KKRTLRKDEDERKKR-{FAM}) [Example 6] | 15.2 |  |
| Ac-KKRTLRKEDRKKR-FAM (Ac-KKRTLRKEDRKKR-{FAM}) [Example 2] | 15.7 | have the cell membrane permeability |
| Ac-KKRTLRKEDEDEDRKKR-FAM (Ac-KKRTLRKEDEDEDRKKR-{FAM}) [Example 7] | 14.3 |  |
| Ac-KKRTLRKDERKKR-FAM (Ac-KKRTLRKDERKKR-{FAM}) [Example 1] | 16.3 | have the cell membrane permeability |
| Ac-KKRTLRKEDEDRKKR-FAM (Ac-KKRTLRKEDEDRKKR-{FAM″}) [Example 3] | 13.8 |  |
| Ac-KKRTLRKEEDDRKKR-FAM (Ac-KKRTLRKEEDDRKKR-{FAM}) [Example 4] | 14.3 |  |
| Ac-KKRTLRKDDEERKKR-FAM (Ac-KKRTLRKDDEERKKR-{FAM}) [Example 5] | 14.8 |  |
| 5 (6)-carboxyfluorescein [Example 8, reference compound] | 11 |  |
